Experimental data from ChEMBL document CHEMBL1201862, “PubChem BioAssay data set” (2004).
“And” between values parts separate entries of the source, which are not always exact repeats. Equal entries are not always repeated. The source made the active and inactive calls.

Columns and labels:
[1] = target: Cytochrome P450 2C19 (Homo sapiens, UniProt P33261); test: Cytochrome panel assay with activity outcomes. Panel member name: p450-cyp2c19 Compounds with AC50 equal or less than 10 uM are considered active; format: functional
Chain of Cytochrome P450 2C19 (P33261 whole entry): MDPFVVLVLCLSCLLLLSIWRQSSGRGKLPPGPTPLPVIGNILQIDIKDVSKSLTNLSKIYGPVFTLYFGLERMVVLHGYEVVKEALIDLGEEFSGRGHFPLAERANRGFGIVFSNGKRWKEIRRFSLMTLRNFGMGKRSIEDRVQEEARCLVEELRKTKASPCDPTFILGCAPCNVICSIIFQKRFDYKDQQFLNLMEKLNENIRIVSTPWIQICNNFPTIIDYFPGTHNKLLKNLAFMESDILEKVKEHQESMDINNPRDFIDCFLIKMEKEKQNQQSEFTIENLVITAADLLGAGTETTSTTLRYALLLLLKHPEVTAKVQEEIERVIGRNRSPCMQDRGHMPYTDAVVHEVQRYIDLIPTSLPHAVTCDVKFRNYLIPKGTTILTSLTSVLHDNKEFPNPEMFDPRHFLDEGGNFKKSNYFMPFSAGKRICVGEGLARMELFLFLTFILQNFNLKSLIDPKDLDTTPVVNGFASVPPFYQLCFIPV

[2] = target: T1, Cytochrome P450 1A2 (Homo sapiens, UniProt P05177)
T1 sequence (P05177 whole entry): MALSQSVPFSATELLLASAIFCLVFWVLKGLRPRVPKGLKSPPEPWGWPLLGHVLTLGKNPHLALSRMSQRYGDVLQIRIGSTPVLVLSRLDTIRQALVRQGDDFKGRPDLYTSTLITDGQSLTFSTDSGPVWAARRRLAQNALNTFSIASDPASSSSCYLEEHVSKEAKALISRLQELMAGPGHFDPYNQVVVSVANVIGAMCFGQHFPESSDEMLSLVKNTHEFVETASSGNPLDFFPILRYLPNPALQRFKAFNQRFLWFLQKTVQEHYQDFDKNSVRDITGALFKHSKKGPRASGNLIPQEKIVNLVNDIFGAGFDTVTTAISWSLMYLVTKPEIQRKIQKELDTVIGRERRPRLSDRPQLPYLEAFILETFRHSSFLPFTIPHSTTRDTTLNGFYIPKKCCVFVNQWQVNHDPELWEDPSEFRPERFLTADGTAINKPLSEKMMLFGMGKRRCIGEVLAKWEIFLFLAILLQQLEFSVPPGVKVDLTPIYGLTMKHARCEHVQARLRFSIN

[3] = cytotoxicity toward NIH3T3 fibroblasts, dose response, counter-screen, cell-based, ATP luminescence, mouse fibroblasts (AID 2010); format: functional;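 also: cells exposed to compound for about 90 hours before reading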
[4] = inhibitors of intracellular T. cruzi replication, confirmation, NIH3T3 host cells, beta-gal luminescence (AID 2044); format: functional, cell-based;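 also: intracellular parasites grown in NIH/3T3 mouse fibroblasts as host cells; luminescent beta-galactosidase reporter signal from transgenic T. cruzi replicating inside host cells; inhibitors lower the luminescence signal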
[5] = target: Cytochrome P450 3A4 (Homo sapiens, UniProt P08684);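 also: CYP3A4 tested as one member of a cytochrome P450 panel screen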
Chain of Cytochrome P450 3A4 (P08684 whole entry): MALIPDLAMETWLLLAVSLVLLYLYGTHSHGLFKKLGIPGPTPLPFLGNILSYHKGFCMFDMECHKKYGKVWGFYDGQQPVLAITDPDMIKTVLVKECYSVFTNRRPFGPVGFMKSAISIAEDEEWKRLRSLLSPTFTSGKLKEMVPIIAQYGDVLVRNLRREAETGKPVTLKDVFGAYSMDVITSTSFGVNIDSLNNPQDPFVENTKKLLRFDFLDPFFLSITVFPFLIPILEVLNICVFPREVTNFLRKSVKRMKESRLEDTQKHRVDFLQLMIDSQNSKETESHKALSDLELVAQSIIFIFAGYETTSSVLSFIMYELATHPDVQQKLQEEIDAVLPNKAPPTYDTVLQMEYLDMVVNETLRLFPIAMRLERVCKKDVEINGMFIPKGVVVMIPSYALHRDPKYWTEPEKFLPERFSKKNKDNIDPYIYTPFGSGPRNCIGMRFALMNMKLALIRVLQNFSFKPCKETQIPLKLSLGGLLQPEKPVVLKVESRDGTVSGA

Structure (SMILES)	EC50 [3]	EC50 [4]	also measured
COC(=O)c1c(-c2cc(OC)c(OC)c(OC)c2)c2ccc(OCc3ccccn3)cc2c(=O)n1-c1ccc(N)cc1	–	–	AC50 ([1]; read-out: AC50): 10 µM (inconclusive)
Cc1cc(C)c(S(=O)(=O)NCC2CCC(C(=O)NCc3ccc4c(c3)OCO4)CC2)c(C)c1 (centres undefined)	–	–	AC50 [2]: 17.8 µM (inconclusive)
O=C(NCC1CCCC(CNC(=O)Nc2ccc(Cl)cn2)C1)Nc1ccc(Cl)cn1 (centres undefined)	> 60 µM (not active)	1.18 µM (active)	–
CN(C)CCCN(C(=O)/C=C/c1cccs1)c1nc2c(F)cccc2s1	> 60 µM (not active)	1.86 µM (active)	–
O=C(CCN1C(=O)C2C3C=CC(C3)C2C1=O)Nc1c(F)cccc1F (centres undefined)	–	–	AC50 ([1]; read-out: AC50): 39.8 µM (inconclusive)
COc1cccc(Nc2nc(N)nc(CCl)n2)c1	4.11 µM (active)	1.7 µM (active)	–
CC12CN3CC(C)(CN(C1)C3c1ccc([N+](=O)[O-])o1)C2=O (centres undefined)	> 60 µM (not active)	0.784 µM (active)	–
O=C(NC1CCN(Cc2ccccc2)CC1)c1ccc(Cn2c(=S)[nH]c3ccc(N4CCOCC4)cc3c2=O)cc1	10.4 µM (active)	1.3 µM (active)	–
N#Cc1cccc(-c2ccc3ncnc(NC4CCNCC4)c3c2)c1	–	–	AC50 ([1]; read-out: AC50): 25.1 µM (inconclusive)
CN1CCN(c2ncncc2-c2ccccc2Cl)CC1	–	–	AC50 [2]: 2.51 µM (inconclusive)
CC(=O)Nc1ccc(OCC(O)Cn2c3ccccc3c3ccccc32)c(C)c1 (centres undefined)	9.57 µM (active)	2.11 µM (active)	–
CN1C(=O)C(C2c3ccccc3C(=O)N2Cc2ccc([N+](=O)[O-])cc2)C(=O)N(C)C1=O (centres undefined)	–	–	AC50 ([1]; read-out: AC50): 14.1 µM (inconclusive)
CCOCCCNCc1ccc(OCCC(C)C)c(OC)c1	> 60 µM (not active)	0.17 µM (active)	–
C=CCNc1nc(Cl)nc(Nc2ccc(OC)cc2)n1	–	–	AC50 ([1]; read-out: AC50): 0.224 µM (inconclusive)
COc1ccccc1N1CCN(C[C@@H](O)COc2cccc3ccccc23)CC1	–	–	AC50 [2]: 12.6 µM (inconclusive) and 31.6 µM (inconclusive) and 20 µM (inconclusive)
CN(C)CCCN(C(=O)COc1ccc(Cl)cc1)c1nc2c(F)cccc2s1	> 60 µM (inconclusive)	0.128 µM (active)	–

Structure (SMILES)	EC50 [3]	EC50 [4]	also measured
N#CCCn1c(=O)cnc2cnc(OCc3ccccc3)nc21	–	–	AC50 [1]: inconclusive
COc1cccc(Cn2c(=O)c(-c3ccccc3)nc3cnc(N4CCN(C)CC4)nc32)c1	–	–	AC50 [5]: 31.6 µM (inconclusive)
Cc1ccc(CNC(=O)[C@H]2C[C@@H]2[C@H](NP(=O)(c2ccccc2)c2ccccc2)c2ccccc2)c(F)c1F	–	–	AC50 ([1]; read-out: AC50): 0.0398 µM (inconclusive)
CCN1CCN(c2ccc(S(=O)(=O)N3CCCCC3)cc2NC(=O)c2cc3ccccc3o2)CC1	> 30 µM (not active)	0.31 µM (active)	–
CCOc1nc(NC(C)C)nc(NC(C)C)n1	–	–	AC50 [2]: 5.01 µM (inconclusive)
CC(C)(C)NC[C@@H](O)COc1cccc2[nH]c(C#N)cc12	–	–	AC50 [2]: 31.6 µM (inconclusive)
COc1ccccc1-c1nc(NCc2ccccc2)c2ccccc2n1	–	–	AC50 ([1]; read-out: AC50): 25.1 µM (inconclusive)
COc1ccc(NS(=O)(=O)c2cccc(C(=O)NC3CCN(Cc4ccccc4)CC3)c2)cc1	> 30 µM (not active)	0.318 µM (active)	–
CCCc1nnc(NC(=O)C(CC)OC(=O)c2cc(C)nc3ccccc23)s1 (centres undefined)	–	–	AC50 [2]: 15.8 µM (inconclusive); AC50 ([1]; read-out: AC50): 15.8 µM (inconclusive)
Cc1ccc(C2C(=O)N(C3CCCC3)CC(=O)N2CC2COc3ccccc3O2)cc1 (centres undefined)	–	–	AC50 [2]: 39.8 µM (inconclusive)
COC(=O)[C@@]1(Cc2ccccc2)[C@H]2c3cc(C(=O)N4CCCC4)n(CCO)c3C[C@H]2CN1C(=O)c1ccccc1	–	–	AC50 ([1]; read-out: AC50): 0.00794 µM (inconclusive)
CN(C)CCCN1c2ccccc2Sc2cnccc21	–	–	AC50 [2]: 0.501 µM (inconclusive)
COc1ccc(C)cc1NC(=O)c1ccc([N+](=O)[O-])cc1[N+](=O)[O-]	> 60 µM (not active)	1.18 µM (active)	–
COc1ccc(C(CCN)Cc2ccccc2)cc1 (centres undefined)	> 30 µM (not active)	–	–
N#CCCn1c(=O)cnc2cnc(N3CCOCC3)nc21	–	–	AC50 [1]: inconclusive
CCn1c2ccccc2c2cc(/N=C3/SC(CC(=O)Nc4ccccc4OC)C(=O)N3C)ccc21 (centres undefined)	–	–	AC50 [5]: 2.82 µM (inconclusive)
